In patent US11034718B2, “C-3 novel triterpenone with C-17 reverse amide derivatives as HIV inhibitors” (HETERO LABS LIMITED, priority 2015, dated 2021):
Like-named read-outs stand apart in the source and are kept apart here.

Legend:
Type in all cases: cell-based
HIV-1 pNL4-3 V7A = assay: Antiviral activity against pNL4-3/V7A strain in MT4 cells (p24 estimation); settings: Human immunodeficiency virus 1, MT4, 96 h, read-out: pNL4-3 V7A IC50
Method: (§1) Example 78: Evaluation of Compounds Antiviral Activity Against pNL4-3/WT & V7A Strains in MT4 Cells
(§2) MT4 cells were Transfected with HIV-1 Plasmid (pNL4-3-WT & V7A) (Cells were incubating with required number of TCID50 of HIV-1 for 1.5 h at 37° C.). After infection, the infected cells were plated at the concentration of 3×10^4 cells per well in 96 well plate. Test compound was added to the test plate in defined format with the final concentration of DMSO is not more than 1%. Incubation was carried out in CO2 incubator for 4 days for viral infection. At the end of incubation period an aliquot from each well was taken for p24 estimation. p24 estimation was carried out using Advance biosciences kit as per the procedure detailed by supplier.

HIV-1 pNL4-3 WT = assay: Antiviral activity against pNL4-3/WT strain in MT4 cells (p24 estimation); settings: Human immunodeficiency virus 1, MT4, 96 h, read-out: pNL4-3 WT IC50
Method: as §1, §2

HIV-1 strain 92HT599 = assay: Antiviral activity against HIV-1 strain 92HT599 in MT2 cells (p24 estimation); settings: HIV-1 92HT599, ~96 hours
How it was run: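 Percent inhibition versus vehicle controls came from p24 quantified in supernatant aliquots. These were taken after ~96 h incubation of compound (DMSO ≤1%) with MT2 cells infected at 10 TCID50/30,000 cells.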

[1] = Human immunodeficiency virus 1, 0% serum binding assay, read-out: IC50 0% serum
[2] = Human immunodeficiency virus 1, 40% serum binding assay, read-out: IC50 40% serum

| SMILES | IC50 (HIV-1 pNL4-3 V7A) | IC50 (HIV-1 pNL4-3 WT) | IC50 (HIV-1 strain 92HT599; [1]) | IC50 (HIV-1 strain 92HT599; [2]) |
| --- | --- | --- | --- | --- |
| Cc1noc(C)c1C(=O)NC(C)(C)C(=O)N[C@@]12CC[C@]3(C)[C@H](CC[C@@H]4[C@@]5(C)CC[C@H](OC(=O)[C@H]6C[C@@H](C(=O)O)C6(C)C)C(C)(C)[C@@H]5CC[C@]43C)C1=C(C(C)C)C(=O)C2 [Example 19, (1R,3S)-3-((((3aR,5aR,5bR,7aR,9S,11aR,11bR,13aS)-3a-(2-(3,5-dimethylisoxazole-4-carboxamido)-2-methylpropanamido)-1-isopropyl-5a,5b,8,8,11a-pentamethyl-2-oxo-3,3a,4,5,5a,5b,6,7,7a,8,9,10,11,11a,11b,12,13,13a-octadecahydro-2H-cyclopenta[a]chrysen-9-yl)oxy)carbonyl)-2,2-dimethylcyclobutane-1-carboxylic acid] | < 0.01 µM | < 0.005 µM | < 0.003 µM | < 0.05 µM |
| Cc1cn(-c2ccc(C(=O)NC(C)(C)C(=O)N[C@@]34CC[C@]5(C)[C@H](CC[C@@H]6[C@@]7(C)CC[C@H](OC(=O)[C@H]8C[C@@H](C(=O)O)C8(C)C)C(C)(C)[C@@H]7CC[C@]65C)C3=C(C(C)C)C(=O)C4)cc2)cn1 [Example 20, (1R,3S)-3-((((3aR,5aR,5bR,7aR,9S,11aR,11bR,13aS)-1-isopropyl-5a,5b,8,8,11a-pentamethyl-3a-(2-methyl-2-(4-(4-methyl-1H-imidazol-1-yl)benzamido)propanamido)-2-oxo-3,3a,4,5,5a,5b,6,7,7a,8,9,10,11,11a,11b,12,13,13a-octadeca hydro-2H-cyclopenta[a]chrysen-9-yl)oxy)carbonyl)-2,2-dimethylcyclobutane-1-carboxylic acid] | > 0.05 µM | > 0.01 µM | < 0.003 µM | < 0.05 µM |
| CC(C)C1=C2[C@H]3CC[C@@H]4[C@@]5(C)CC[C@H](OC(=O)[C@H]6C[C@@H](C(=O)O)C6(C)C)C(C)(C)[C@@H]5CC[C@@]4(C)[C@]3(C)CC[C@@]2(NC(=O)C(C)(C)NC(=O)c2ccc(C(F)(F)F)cc2)CC1=O [Example 25, (1R,3S)-3-((((3aR,5aR,5bR,7aR,9S,11aR,11bR,13aS)-1-isopropyl-5a,5b,8,8,11a-pentamethyl-3a-(2-methyl-2-(4-(trifluoromethyl)benzamido)propan amido)-2-oxo-3,3a,4,5,5a,5b,6,7,7a,8,9,10,11,11a,11b,12,13,13a-octadecahydro-2H-cyclopenta[a]chrysen-9-yl)oxy)carbonyl)-2,2-dimethylcyclobutane-1-carboxylic acid] | < 0.01 µM | < 0.005 µM | < 0.003 µM | < 0.05 µM |
| CC(C)C1=C2[C@H]3CC[C@@H]4[C@@]5(C)CC[C@H](OC(=O)[C@H]6C[C@@H](C(=O)O)C6(C)C)C(C)(C)[C@@H]5CC[C@@]4(C)[C@]3(C)CC[C@@]2(NC(=O)C(C)(C)NC(=O)c2ccc3ccccc3n2)CC1=O [Example 28, (1R,3S)-3-((((3aR,5aR,5bR,7aR,9S,11aR,11bR,13aS)-1-isopropyl-5a,5b,8,8,11a-pentamethyl-3a-(2-methyl-2-(quinoline-2-carboxamido)propanamido)-2-oxo-3,3a,4,5,5a,5b,6,7,7a,8,9,10,11,11a,11b,12,13,13a-octadecahydro-2H-cyclopenta[a]chrysen-9-yl)oxy)carbonyl)-2,2-dimethylcyclobutane-1-carboxylic acid] | 0.01 to 0.05 µM | 0.00501 to 0.01 µM | < 0.003 µM | < 0.05 µM |
| Cc1occc1C(=O)NC(C)(C)C(=O)N[C@@]12CC[C@]3(C)[C@H](CC[C@@H]4[C@@]5(C)CC[C@H](OC(=O)[C@H]6C[C@@H](C(=O)O)C6(C)C)C(C)(C)[C@@H]5CC[C@]43C)C1=C(C(C)C)C(=O)C2 [Example 30, (1R,3S)-3-((((3aR,5aR,5bR,7aR,9S,11aR,11bR,13aS)-1-isopropyl-5a,5b,8,8,11a-pentamethyl-3a-(2-methyl-2-(2-methylfuran-3-carboxamido)propan amido)-2-oxo-3,3a,4,5,5a,5b,6,7,7a,8,9,10,11,11a,11b,12,13,13a-octadecahydro-2H-cyclopenta[a]chrysen-9-yl)oxy)carbonyl)-2,2-dimethylcyclobutane-1-carboxylic acid] | > 0.05 µM | 0.00501 to 0.01 µM | < 0.003 µM | < 0.05 µM |
| CC(C)C1=C2[C@H]3CC[C@@H]4[C@@]5(C)CC[C@H](OC(=O)[C@H]6C[C@@H](C(=O)O)C6(C)C)C(C)(C)[C@@H]5CC[C@@]4(C)[C@]3(C)CC[C@@]2(NC(=O)C(C)(C)NC(=O)c2cccnc2N2CCOCC2)CC1=O [Example 31, (1R,3S)-3-((((3aR,5aR,5bR,7aR,9S,11aR,11bR,13aS)-1-isopropyl-5a,5b,8,8,11a-pentamethyl-3a-(2-methyl-2-(2-morpholinonicotinamido)propan amido)-2-oxo-3,3a,4,5,5a,5b,6,7,7a,8,9,10,11,11a,11b,12,13,13a-octadecahydro-2H-cyclopenta[a]chrysen-9-yl)oxy)carbonyl)-2,2-dimethylcyclobutane-1-carboxylic acid] | > 0.05 µM | < 0.005 µM | < 0.003 µM | < 0.05 µM |
| CC(C)C1=C2[C@H]3CC[C@@H]4[C@@]5(C)CC[C@H](OC(=O)[C@H]6C[C@@H](C(=O)O)C6(C)C)C(C)(C)[C@@H]5CC[C@@]4(C)[C@]3(C)CC[C@@]2(NC(=O)C(C)(C)NC(=O)c2ncccn2)CC1=O [Example 32, (1R,3S)-3-((((3aR,5aR,5bR,7aR,9S,11aR,11bR,13aS)-1-isopropyl-5a,5b,8,8,11a-pentamethyl-3a-(2-methyl-2-(pyrimidine-2-carboxamido)propanamido)-2-oxo-3,3a,4,5,5a,5b,6,7,7a,8,9,10,11,11a,11b,12,13,13a-octadecahydro-2H-cyclopenta[a]chrysen-9-yl)oxy)carbonyl)-2,2-dimethylcyclobutane-1-carboxylic acid] | > 0.05 µM | > 0.01 µM | 0.00301 to 0.01 µM | > 0.2 µM |
| Cc1cc(C(=O)NC(C)(C)C(=O)N[C@@]23CC[C@]4(C)[C@H](CC[C@@H]5[C@@]6(C)CC[C@H](OC(=O)[C@H]7C[C@@H](C(=O)O)C7(C)C)C(C)(C)[C@@H]6CC[C@]54C)C2=C(C(C)C)C(=O)C3)c(C)o1 [Example 33, (1R,3S)-3-((((3aR,5aR,5bR,7aR,9S,11aR,11bR,13aS)-3a-(2-(2,5-dimethylfuran-3-carboxamido)-2-methylpropanamido)-1-isopropyl-5a,5b,8,8,11a-pentamethyl-2-oxo-3,3a,4,5,5a,5b,6,7,7a,8,9,10,11,11a,11b,12,13,13a-octadecahydro-2H-cyclopenta[a]chrysen-9-yl)oxy)carbonyl)-2,2-dimethylcyclobutane-1-carboxylic acid] | < 0.01 µM | < 0.005 µM | < 0.003 µM | < 0.05 µM |
| CC(C)C1=C2[C@H]3CC[C@@H]4[C@@]5(C)CC[C@H](OC(=O)[C@H]6C[C@@H](C(=O)O)C6(C)C)C(C)(C)[C@@H]5CC[C@@]4(C)[C@]3(C)CC[C@@]2(NC(=O)C(C)(C)NC(=O)CN2CCS(=O)(=O)CC2)CC1=O [Example 34, (1R,3S)-3-((((3aR,5aR,5bR,7aR,9S,11aR,11bR,13aS)-3a-(2-(2-(1,1-dioxidothiomorpholino)acetamido)-2-methylpropanamido)-1-isopropyl-5a,5b,8,8,11a-pentamethyl-2-oxo-3,3a,4,5,5a,5b,6,7,7a,8,9,10,11,11a,11b,12,13,13a-octadecahydro-2H-cyclopenta[a]chrysen-9-yl)oxy)carbonyl)-2,2-dimethylcyclobutane-1-carboxylic acid] | 0.01 to 0.05 µM | < 0.005 µM | < 0.003 µM | < 0.05 µM |
| CC(C)C1=C2[C@H]3CC[C@@H]4[C@@]5(C)CC[C@H](OC(=O)[C@H]6C[C@@H](C(=O)O)C6(C)C)C(C)(C)[C@@H]5CC[C@@]4(C)[C@]3(C)CC[C@@]2(NC(=O)C2(NC(=O)c3ccc(Cl)cc3)CC2)CC1=O [Example 37, (1R,3S)-3-((((3aR,5aR,5bR,7aR,9S,11aR,11bR,13aS)-3a-(1-(4-chlorobenzamido)cyclopropane-1-carboxamido)-1-isopropyl-5a,5b,8,8,11a-pentamethyl-2-oxo-3,3a,4,5,5a,5b,6,7,7a,8,9,10,11,11a,11b,12,13,13a-octadecahydro-2H-cyclopenta[a]chrysen-9-yl)oxy)carbonyl)-2,2-dimethylcyclobutane-1-carboxylic acid] | < 0.01 µM | < 0.005 µM | < 0.003 µM | < 0.05 µM |
| Cc1ccc(C(=O)NC2(C(=O)N[C@@]34CC[C@]5(C)[C@H](CC[C@@H]6[C@@]7(C)CC[C@H](OC(=O)[C@H]8C[C@@H](C(=O)O)C8(C)C)C(C)(C)[C@@H]7CC[C@]65C)C3=C(C(C)C)C(=O)C4)CC2)cn1 [Example 38, (1R,3S)-3-((((3aR,5aR,5bR,7aR,9S,11aR,11bR,13aS)-1-isopropyl-5a,5b,8,8,11a-pentamethyl-3a-(1-(6-methylnicotinamido)cyclopropane-1-carbox amido)-2-oxo-3,3a,4,5,5a,5b,6,7,7a,8,9,10,11,11a,11b,12,13,13a-octadecahydro-2H-cyclopenta[a]chrysen-9-yl)oxy)carbonyl)-2,2-dimethylcyclobutane-1-carboxylic acid] | < 0.01 µM | < 0.005 µM | < 0.003 µM | < 0.05 µM |
